Here are results for 5 compounds from publication PMC8958501, “Hypothesis-Driven, Structure-Based Design in Photopharmacology: The Case of eDHFR Inhibitors” (Journal of Medicinal Chemistry, 2022).

SMILES strings stand for the structures. Where two headings read alike, the source gives them in different places. Where only a bound is given, the exact number is not on record here.

One series deals with T1, eDHFR (Escherichia coli, UniProt P0ABQ4).
T1 construct: made in house; host or cells: E. cloni EXPRESS BL21 (DE3) cells (Lucigen), pT7-SC1 plasmid
The series is described as follows: biochemical. Particulars: for light-induced change in eDHFR inhibition (dark IC50 vs irradiated IC50): irradiation with λ1 = 365 nm.

A short description of series [1]: Solubility in eDHFR assay buffer. Type of series: physicochemical. The following applies: aqueous with cosolvent or surfactant or cyclodextrin, with 20% DMSO as an additive.
The test system of a further series is E. coli CS1562. The series is described as follows: Antibacterial activity assay (MIC, bacterial growth curves). Type of series: cell-based, Escherichia coli. Particulars: for MIC: Escherichia coli, E. coli CS1562, 24 h; for MIC / bacterial growth inhibition, same in both forms: both before and after irradiation with λ1 = 365 nm. The method, then:
A culture of E. coli CS1562 was grown overnight in LB medium (10 g/L tryptone, 5 g/L yeast extract, 5 g/L NaCl) containing tetracycline (10 μg/mL) at 37 °C. The OD600 was measured, and the culture was diluted to 0.002 OD600 in LB medium. Series dilutions of the compounds were prepared in DMSO and diluted 25 times in sterile LB medium in a black sterile Eppendorf tube. […] Subsequently, the dark samples were added to the 96-well plate (100 μL, triplicates). Lastly, the LB medium containing E. coli CS1562 at 0.002 OD was added to every well (100 μL). The cells were grown overnight at 37 °C in a plate reader (Synergy H1, Biotek), and the OD600 was measured every 10 min with a 10 s shaking step before each measurement. The OD600 curves were background-corrected by subtracting the value at t = 0. […] Detailed data are reported in the SI.

Series [2] is described as follows: Thermal cis-to-trans isomerization (thermal half-life of the metastable cis isomer). Format: physicochemical. Particulars: for thermal lifetime t1/2: at 25 and 37 °C; for t1/2 DMSO (25 °C): thermal cis-to-trans isomerization, 20 µM. The method, then:
(§1) UV–vis absorption spectra were recorded on an Agilent 8453 UV–vis Spectrophotometer. Photochemical isomerization (photoswitching) was achieved by irradiation from the side in a fluorescence quartz cuvette (width = 1.0 cm) using a custom-built (Prizmatix/Mountain Photonics) multiwavelength fiber coupled LED system (FC6-LED-WL) including the following LEDs: 365A, 390B, 420Z, 445B, 535R, 630CA. A detailed description of the setup was published by us recently.[84] Alternatively, the samples were irradiated at 340 nm using the LOT Quantum design setup with 300 W Xe-Arc lamp, using the Thorlabs FB340-10 Bandpass filter. A Quantum Northwest TC1 temperature controller was used to maintain the temperature at 25 °C during photochemical studies. To analyze the fatigue resistance of the compounds, repeated irradiation cycles were performed using alternating wavelengths. The decrease and increase of the π–π* transition band was followed by UV–vis spectroscopy (Agilent 8453) at 25 °C while stirring. To determine the thermal lifetime for the metastable cis isomer, samples were irradiated with the custom-built setup until photostationary state (PSS) was reached. Then, the cuvettes were placed in a JASCO V750 spectrophotometer with a PTC 424S/15 temperature controller, and the recovery of the π–π* transition was followed while stirring at 25 °C (for solutions in DMSO and eDHFR assay buffer) or 37 °C (for solutions in 10 mM Tris-HCl buffer pH 7.0). The data were fitted using a first-order exponential function in OriginPro 2018. For the PSD determination by ^1H NMR spectroscopy, 0.5 mL of a 2 mM solution of the respective compound in DMSO-d6 was thermally equilibrated by briefly (∼10 s) heating the sample with a heat gun. Subsequently, the sample was irradiated in a glass NMR tube with a 365 nm hand-held lamp (Spectroline ENB-280C) or the LEDs of the custom-built setup. Detailed data are reported in the SI.

The nature of series [3]: Fatigue studies: repeated photoisomerization in the presence of GSH. Particulars: eDHFR assay buffer, 10 mM GSH. Type of series: physicochemical. The method, then: as §1
Setting [4] is: after irradiation, read-out: DHFR inhibition IC50 (nM) after irradiation.
[5] abbreviates: light or radiation study, after irradiation with λ1 = 365 nm, read-out: MIC Light.
Where [6] appears, read: light or radiation study, after irradiation, read-out: MIC (µM) after irradiation.
[7] abbreviates: light or radiation study, before irradiation, read-out: MIC (µM) before irradiation.
Where [8] appears, read: IC50 Dark, dark-adapted (thermally adapted, trans isomer).
[9] abbreviates: irradiated to PSS with λ1 (340 nm for 3, 365 nm for 6-15), read-out: IC50 Light.
Where [10] appears, read: irradiated with λ1 (1: continuous irradiation at 390 nm), read-out: IC50 Light.
Setting [11] is: DHFR inhibition IC50 (nM) before irradiation, before irradiation.
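Throughout, for DHFR inhibition IC50 (nM) after irradiation: purified E. coli DHFR colorimetric assay, enzyme with NADPH 3 min then inhibitor (10^-12 to 10^-5 M) 7 min, rate ΔAbs/s relative to DMSO control (1% v/v), triplicates.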
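Throughout, for DHFR inhibition IC50 (nM) before irradiation: purified E. coli DHFR colorimetric assay, enzyme with NADPH 3 min then inhibitor (10^-12 to 10^-5 M) 7 min, rate ΔAbs/s relative to DMSO control (1% v/v), triplicates.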
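Throughout, for IC50: purified E. coli DHFR colorimetric assay, enzyme with NADPH 3 min then inhibitor (10^-12 to 10^-5 M) 7 min, rate ΔAbs/s relative to DMSO control (1% v/v), triplicates.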
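Throughout, for light-induced change in eDHFR inhibition (dark IC50 vs irradiated IC50): purified E. coli DHFR colorimetric assay, enzyme with NADPH 3 min then inhibitor (10^-12 to 10^-5 M) 7 min, rate ΔAbs/s relative to DMSO control (1% v/v), triplicates.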

T1 sequence (P0ABQ4 whole entry): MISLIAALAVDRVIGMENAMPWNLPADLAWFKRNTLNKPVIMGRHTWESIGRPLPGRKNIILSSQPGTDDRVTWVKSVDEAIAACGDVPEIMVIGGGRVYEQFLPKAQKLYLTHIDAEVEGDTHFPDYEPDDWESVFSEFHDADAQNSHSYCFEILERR

In the case of `COC(C)(C#Cc1cnc(N)nc1N)c1cccc(/N=N/c2ccccc2)c1` (stereo not drawn) [Compound 7, (E)-5-{3-Methoxy-3-[3-(phenyldiazenyl)phenyl]but-1-yn-1-yl}pyrimidine-2,4-diamine], the melting point – broadly, the temperature, or range, at which the solid turns liquid – lay within 105 to 107 °C. The IC50 (as a rule, the concentration that inhibits the measured activity by half) at eDHFR (setting [4]) is 250 ± 140 nM. For the same compound, the half-maximal inhibitory concentration (IC50) at eDHFR (before irradiation, read-out: DHFR inhibition IC50 (nM) before irradiation) came to 190 ± 40 nM. Besides, the “light-induced change in eDHFR inhibition (dark IC50 vs irradiated IC50)” value (“light-induced change in eDHFR inhibition” for short) on eDHFR is “not significant”. Moreover, the solubility (in general, the dissolved amount per volume that the medium holds) in series [1] is not above 5 µM. For the same compound, the minimum inhibitory concentration (MIC) (usually the lowest concentration found to suppress growth) in the series on E. coli CS1562 (setting [5]) came to 20 µM. In addition, the minimum inhibitory concentration (MIC) in the series on E. coli CS1562 (setting [6]) came out at 20 µM. Further, in the series on E. coli CS1562 (setting [7]), the minimal inhibitory concentration (MIC) was found to be 20 µM. Also, the MIC in the series on E. coli CS1562 (dark, read-out: MIC Dark) is 20 µM. Besides, the “MIC / bacterial growth inhibition, same in both forms” value (shortened to “MIC / bacterial growth inhibition”) in the series with E. coli CS1562 (E. coli CS1562) is 20 µM. In series [2], the “thermal lifetime t1/2” value is recorded as more than 24 h and the “t1/2 DMSO (25 °C)” value was more than 24 h. Also, in series [3], the “fatigue / resistance to reduction upon repeated irradiation cycles” value is “robust photoswitching”.

For `COC(C)(C#Cc1cnc(N)nc1N)c1ccc(/N=N/c2ccccc2)cc1` (stereo not drawn) [Compound 6, (E)-5-{3-Methoxy-3-[4-(phenyldiazenyl)phenyl]but-1-yn-1-yl}pyrimidine-2,4-diamine], the melting point fell in the range of 149 to 150 °C. The IC50 against eDHFR (setting [8]) stood at 370 nM. The IC50 at eDHFR (setting [4]) was found to be 160 ± 62 nM. Besides, on eDHFR (setting [9]), the half-maximal inhibitory concentration (IC50) stood at 160 ± 62 nM. The half-inhibitory concentration (IC50) on eDHFR (setting [10]) worked out at 160 nM. Further, the “light-induced change in eDHFR inhibition” value on eDHFR was found to be 2 fold. In series [1], this compound came in with a solubility not above 5 µM. Further, the MIC in the series with E. coli CS1562 (setting [5]) stood at 20 µM. Moreover, the minimum inhibitory concentration (MIC) with E. coli CS1562 (setting [6]) was 20 µM. Further, the MIC with E. coli CS1562 (setting [7]) was more than 40 µM. Besides, in the series with E. coli CS1562 (dark, read-out: MIC Dark), the minimum inhibitory concentration (MIC) is more than 40 µM. Further, the “light-induced difference in antibacterial activity (dark MIC vs irradiated MIC)” value with E. coli CS1562 (irradiation with λ1 = 365 nm, E. coli CS1562) was more than 2 fold. Besides, in series [2], the “thermal lifetime t1/2” value is listed as more than 24 h and the “t1/2 DMSO (25 °C)” value is more than 24 h. For the same compound, the “fatigue / resistance to reduction upon repeated irradiation cycles” value in series [3] is listed as “robust photoswitching”.

Compound `COc1ccc(/N=N/c2ccc(C(C)(C#Cc3cnc(N)nc3N)OC)cc2)cc1` (stereo not drawn) [Compound 8, (E)-5-{3-Methoxy-3-[4-((4-methoxyphenyl)diazenyl]phenyl}but-1-yn-1-yl)pyrimidine-2,4-diamine] registered a melting point of 186 to 189 °C. The compound also displayed an IC50 on eDHFR (setting [11]) of 330 ± 190 nM. This compound returned an IC50 against eDHFR (setting [8]) of 330 ± 190 nM. Besides, the half-inhibitory concentration (IC50) on eDHFR (setting [4]) was 200 ± 77 nM. In addition, the IC50 at eDHFR (setting [9]) stood at 200 ± 77 nM. For the same compound, the IC50 at eDHFR (setting [10]) was 200 nM. Further, the minimal inhibitory concentration (MIC) in the series on E. coli CS1562 (setting [5]) is more than 80 µM. In addition, in the series with E. coli CS1562 (setting [6]), the MIC is more than 80 µM. Besides, the MIC in the series on E. coli CS1562 (setting [7]) is more than 80 µM. The MIC in the series with E. coli CS1562 (dark, read-out: MIC Dark) is more than 80 µM. In the series on E. coli CS1562 (E. coli CS1562), the “MIC / bacterial growth inhibition” value was more than 80 µM. Moreover, the “t1/2 DMSO (25 °C)” value in series [2] was more than 24 h.

Consider `Nc1ncc(-c2cccc(/N=N/c3ccccc3)c2)c(N)n1` [Compound 3, (E)-5-[3-(Phenyldiazenyl)phenyl]pyrimidine-2,4-diamine], for which the melting point was 209 to 211 °C. At eDHFR (setting [8]), this compound yielded an IC50 of 280 nM. The concentration for half-maximal inhibition (IC50) at eDHFR (setting [9]) was 710 nM. In series [2], the “t1/2 DMSO (25 °C)” value is more than 24 h. Also, the “fatigue / resistance to reduction upon repeated irradiation cycles” value in series [3] is “no sign of fatigue”.

For `COC(C)(C#Cc1cnc(N)nc1N)c1ccc(/N=N/c2ccc(C(=O)O)cc2)cc1` (stereo not drawn) [Compound 11, (E)-4-{[4-(4-(2,4-Diaminopyrimidin-5-yl)-2-methoxybut-3-yn-2-yl)phenyl]diazenyl}benzoic acid], the melting point is 248 °C (dec.). The midpoint of inhibition on eDHFR (setting [11]), the IC50, lay at 58 ± 13 nM. Moreover, half-maximal inhibition against eDHFR (setting [8]) (IC50) was put at 58 ± 13 nM. Also, the IC50 at eDHFR (setting [4]) stood at 70 ± 39 nM. Further, the IC50 on eDHFR (setting [9]) amounted to 70 ± 39 nM. For the same compound, on eDHFR, the “light-induced change in eDHFR inhibition” value was “not significant”. For the same compound, in the series with E. coli CS1562 (setting [5]), the minimal inhibitory concentration (MIC) is 40 µM. Also, the minimal inhibitory concentration (MIC) in the series with E. coli CS1562 (setting [6]) stood at 40 µM. The minimal inhibitory concentration (MIC) in the series on E. coli CS1562 (setting [7]) is 40 µM. In the series on E. coli CS1562 (dark, read-out: MIC Dark), the minimum inhibitory concentration (MIC) worked out at 40 µM. The “MIC / bacterial growth inhibition” value in the series on E. coli CS1562 (E. coli CS1562) turned out to be 40 µM. Further, in series [2], the “t1/2 DMSO (25 °C)” value is more than 24 h.
